# Legend:
# CFTE29o- = assay: Apoptosis, in situ end labeling of DNA strand breaks, CFTR-deficient cells; format: cell-based, human; details: for apoptosis by fluorescein staining: no TNF-α
# Method: (§1) Adherent epithelial cell lines, CFTE29o- and 9HTEo-, grown on coated coverslips for 24 hours, were treated with fenretinide at the same concentrations used to determine IL-8 release as indicated supra. After a 24-hour incubation with fenretinide, cells were stimulated with TNF-α (experimental group) or with Cisplatin at […] (as a positive control) for an additional 24 hours. Cells were fixed in 4% paraformaldehyde in PBS at pH 7.4 for one hour at room temperature. Cells were subsequently washed and permeabilized using 0.1% TRITON™ X-100 in 0.1% citrate buffer for 2 minutes on ice. After being washed, the coverslips were individually removed from 24-well plates and cells were incubated for one hour at 37° C. with terminal deoxynucleotidyl transferase (Tdt) enzyme conjugated to fluorescein (Roche Diagnostics, Indianapolis, Ind.) for visualization. A negative slide was produced by incubating a slide of both cell lines with buffer minus the Tdt enzyme. The Tdt enzyme binds to the free hydroxyl end of DNA strand breaks. Subsequently, cells were washed twice with PBS and coverslips were placed on slides in the presence of the anti-fade medium VECTASHIELD® to facilitate fluorescence preservation. Slides were individually labeled with numbers to keep the investigator blinded to the outcome until after the slides were reviewed. Four randomly selected fields were visualized at 400× (total magnification) using a fluorescence microscopy and cells that appeared brightly flourescent were counted. Pictures were taken to estimate the number of positive to negative cells per field.
# [1] = tested on: CFTR-deficient human epithelial cells (CFTE29o-); assay: Proliferation (viable cell counts) of CFTR-deficient human epithelial cells; format: cell-based
# Method: CFTE29o- (0.6×10^6/well in a 24-well plate) cells were incubated with 1.25 μM, 2.5 μM or 5 μM of fenretinide for 24 hours in a MEM containing 10% FBS. Vehicle control wells contained ethanol (EtOH) at concentrations equivalent to those used with fenretinide treatments.
# CFTE29o- cells were incubated with 1.25 μM, 2.5 μM or 5 μM of fenretinide for 24 hours in a MEM containing 10% FBS. After 24 hours, the medium was replaced by MEM 2% FBS containing the same concentrations of fenretinide and stimulated with TNF-α for another 24 hours. Viable cell counts were determined.
# (§2) Treatment with Fenretinide and TNF-α. Normal and CFTR-deficient cells were treated with fenretinide (Wang, et al. (2001) Cancer Res. 61:5102-5105; Erdreich-Epstein, et al. (2002) supra) at doses known to effectively increase cellular ceramide content in cell culture. Normal (9HTEo-; 0.4×10^6 cells/well) and CFTR-deficient human epithelial cells (CFTE29o- ΔF508 CFTR; 0.6×10^6 cells/well) were incubated for 24 hours at 37° C. in 5% CO2 with 1.25 μM, 2.5 μM or 5 μM fenretinide in Eagle's minimum essential medium (MEM) containing 10% fetal bovine serum (FBS). Subsequently, the medium was replaced with fresh MEM 2% FBS containing the same initial concentrations of fenretinide and cells were grown for an additional 24 hours to characterize the impact of fenretinide on IL-8 release in a non-inflammatory condition. To characterize the inflammatory condition, cells were treated with MEM 2% FBS containing 1.25 μM, 2.5 μM or 5 μM fenretinide and concurrently stimulated with human recombinant TNF-α (10 ng/mL) for another 24 hours. All experiments included unstimulated negative control wells.
# (§3) Cell viability was assessed using a 3-(4,5-dimethylthiazol-2-yl)-2,5-diphenyltetrazolium bromide (MTT) assay according to standard methods (Mosmann, T. (1983) J. Immunol. Methods. 65:55-63). […] Cells were incubated for 4 hours at 37° C., supernatant was aspirated, HCl-isopropanol solution (0.04 N HCl in isopropanol) was added, and after 5 minutes the optical densities were measured at 540 nm. […]
# [2] = tested on: normal human epithelial cells (9HTEo-); assay: Proliferation (viable cell counts) of normal human epithelial cells; format: cell-based; details: pro-inflammatory and non-inflammatory state, in particular 2.5 μM and higher
# Method: 9HTEo- (0.4×10^6/well in a 24-well plate) cells were incubated with 1.25 μM, 2.5 μM or 5 μM of fenretinide for 24 hours in a MEM containing 10% FBS. Vehicle control wells contained ethanol (EtOH) at concentrations equivalent to those used with fenretinide treatments.
# 9HTEo- cells were incubated with 1.25 μM, 2.5 μM or 5 μM of fenretinide for 24 hours in a MEM containing 10% FBS. After 24 hours, the medium was replaced by MEM 2% FBS containing the same concentrations of fenretinide and stimulated with TNF-α for another 24 hours.
# Treatment with Fenretinide and TNF-α. Normal and CFTR-deficient cells were treated with fenretinide (Wang, et al. (2001) Cancer Res. 61:5102-5105; Erdreich-Epstein, et al. (2002) supra) at doses known to effectively increase cellular ceramide content in cell culture. […]
# as §3
# [3] = oral, once a day, 28-day courses, cited from earlier work
# 9HTEo- = assay: Apoptosis, in situ end labeling of DNA strand breaks, non-cystic fibrosis cells; format: cell-based, human; details: for apoptosis by fluorescein staining: no TNF-α
# Method: as §1
# Pseudomonas aeruginosa = assay: Pulmonary infection of CFTR knockout and wild-type mice with P. aeruginosa; format: in vivo, mouse
# Text: Homogenous C57BL/6 Cftr^unc knockout mice generated by insertion of a stop codon in exon 10 of Cftr gene are well-known in the art (Snouwaert, et al. (1992) Science 257:1083-8; Gosselin, et al. (1998) Am. J. Respir. Crit. Care Med. 157:1253-62). Mice used in these studies represent offsprings from B6-Cftr^unc (+/−) mice backcrossed to C57BL/6 mice for 10 to 12 generations.
# Housing Conditions. B6-Cftr (−/−) and B6-Cftr (+/+) mice were housed on corn cob bedding (Anderson, Maumee, Ohio) and fed sterile PEPTAMEN® (Clintec Nutrition, Deerfield, Ill.), a low-residue liquid diet which was previously shown to prevent intestinal obstruction in Cftr^unc knockout mice (Eckman, et al. (1995) Am. J. Physiol. 269:L625-L630). A standard diet was used (Gosselin, et al. (1998) supra), wherein the caloric content of the diet was 420 KJ/100 mL and an adult mouse consumes approximately 15 mL/day. In order to maintain the sterility of the diet, it was changed daily. For one month prior to pulmonary infection with P. aeruginosa, mice were provided fenretinide (prepared in PEPTAMEN®) in the drinking water at 5 mg/kg body weight. The dose was set for each individual mouse based on its weight and adjusted every week (e.g., 147 μg/mouse/day for 30 gram mouse).
# Infection of Mice. […] The number of viable P. aeruginosa entrapped in agar beads was determined by plating serial dilutions of the homogenized bead suspension on TSA plates. […]
# Bronchoalveolar Lavages (BAL). […] Alveolar cells were centrifuged, resuspended in 1 mL PBS, stained with Turk's solution and counted. The proportions of macrophages, lymphocytes, and polymorphonuclear leukocytes (PMN) were calculated after counting 200 alveolar cells on cytospin preparations stained with DIFF-QUICK® (American Scientific Products, McGaw Park, Ill.).
# Measurement of Bacterial Burden. […] Serial 10-fold dilutions of homogenates were plated on petri dishes containing TSA and the number of colony-forming units (CFU) per organs was counted after overnight incubation at 37° C. […]
# [4] = tested on: CFTR-deficient cells (CFTE29o-); assay: IL-8 release (ELISA) by CFTR-deficient human tracheal epithelial cells; format: cell-based
# Method: (§4) General Procedures. Normal (9HTEo-) and CFTR-deficient human tracheal epithelial cells (CFTE29o- ΔF508 CFTR) were used in the analysis disclosed herein and grown in pre-coated T-75 flasks in a medium containing 10% fetal bovine serum (FBS). Cells were re-fed every 2-3 days until they reached confluency. Adherent monolayers were released from the plastic surface after treatment with trypsin-EDTA (Sigma-Aldrich Co., St. Louis, Mo.) and split into 24-well plates for about 24 hours before receiving treatments.
# as §2
# IL-8 Release and Cell Viability Assays. Supernatants were collected from treated cells and the amount of IL-8 released into the medium was determined using an enzyme-linked immunosorbent assay (ELISA) kit (OPTEIA™ Human IL-8 Set; BD PHARMINGEN™, San Diego, Calif.). Briefly, 96-well plates were coated overnight with capture antibody, washed with PBS, 0.05% TWEEN®-20 and coated with PBS, 10% heat-inactivated FBS. Known concentrations of IL-8 (standard) and supernatants containing released IL-8 were added as aliquots into appropriate wells, incubated for 2 hours and subsequently decanted from the wells. Enzyme-conjugated anti-IL-8 antibody was added and incubated for 1 hour. After washing the plate, a substrate for the enzyme was added and the plate incubated for 30 minutes. The reaction was stopped using a 2NH2SO4 solution and the absorbance was read at 450 nm.
# normal cells (9HTEo-) = assay: IL-8 release (ELISA) by normal human tracheal epithelial cells; format: cell-based
# Method: as §4, §2
# IL-8 Release and Cell Viability Assays. Supernatants were collected from treated cells and the amount of IL-8 released into the medium was determined using an enzyme-linked immunosorbent assay (ELISA) kit (OPTEIA™ Human IL-8 Set; BD PHARMINGEN™, San Diego, Calif.). Briefly, 96-well plates were coated overnight with capture antibody, washed with PBS, 0.05% TWEEN®-20 and coated with PBS, 10% heat-inactivated FBS. […] The reaction was stopped using a 2NH2SO4 solution and the absorbance was read at 450 nm.
# [5] = CFTR-deficient and wild-type mice, 5 mg/kg for one month before challenge, 3 days post-infection
smiles,measurement,setting,value
N.N.[Cl][Pt][Cl] [cisplatin],apoptotic effect of positive control,"CFTE29o-; CFTR-deficient epithelial cells, as opposed to non-cystic fibrosis cells",resistant to the apoptotic effects
"CC1=C(/C=C/C(C)=C/C=C/C(C)=C/C(=O)Nc2ccc(O)cc2)C(C)(C)CCC1 [fenretinide, all-trans-N-(4-hydroxyphenyl)retinamide]",cell numbers,"[1]; CFTR-deficient cells, non-inflammatory condition, 2.5 μM",decrease in CFTR-deficient epithelial cell numbers
same,cell proliferation,"[1]; CFTR-deficient cells, pro-inflammatory and non-inflammatory state, in particular 2.5 μM and higher",significant decrease in cell proliferation
same,cell numbers,"[1]; cystic fibrosis cells, 1.25 μM",did not show a decrease in cell numbers
same,cell proliferation,[2],significant decrease in cell proliferation
same,subjects with side effects,[3]; subjects 2-21 years with neuroblastoma,15 of the 45
same,time to reversal of side effects after discontinuation of treatment,[3],≤ 7 days
same,apoptosis in the presence of TNF-α,"9HTEo-; TNF-α, both doses (1.25 and 2.5 μM)",significant apoptosis
same,apoptosis by fluorescein staining,9HTEo-; 1.25 μM,weaker fluorescence and an earlier stage of apoptosis
same,apoptosis by fluorescein staining,9HTEo-; 2.5 μM,strong fluorescence and classic apoptotic morphology
same,bacterial burden in lungs,Pseudomonas aeruginosa; [5],reduced
same,recruitment of inflammatory cells to the lungs,Pseudomonas aeruginosa; [5],decrease in the recruitment of inflammatory cells
same,reduction in P. aeruginosa cell numbers as compared to controls,Pseudomonas aeruginosa; cystic fibrosis mice pretreated with fenretinide,approximately 40%
same,"IL-8 level as % of the TNF-α-stimulated value, dose-dependent reduction","[4]; CFTE29o-, TNF-α 10 ng/mL, fenretinide 1.25-5 μM, greatest reduction",70%
same,threshold level for significance of IL-8 reduction,"[4]; CFTE29o-, TNF-α-stimulated",2.5 µM
same,activity at 1.25 µM,"[4]; Homo sapiens, Epithelial cell, CFTE29o-, TNF-α 10 ng/mL, 1.25 μM fenretinide, not significantly different from control, read-out: IL-8 level as % of control (TNF-α only)",86%
same,increase of IL-8 levels in the absence of TNF-α stimulation,"[4]; cystic fibrosis cells, no TNF-α, fenretinide 1.25-5 μM, dose-dependent",2- to 8 fold
same,IL-8 maximum level as % of that secreted by TNF-α-stimulated cells,"normal cells (9HTEo-); 9HTEo-, TNF-α 10 ng/mL, fenretinide 1.25-5 μM",139%
same,threshold level of IL-8 enhancement,"normal cells (9HTEo-); 9HTEo-, TNF-α-stimulated",2.5 µM
same,enhancement in basal IL-8 release,"normal cells (9HTEo-); non-cystic fibrosis cells, no TNF-α, all treatment doses",greater than 14 fold
same,apoptosis in the presence of TNF-α,"CFTE29o-; CFTR-deficient cells, TNF-α, 1.25 and 2.5 μM",no enhancement of apoptosis
same,apoptosis by fluorescein staining,"CFTE29o-; CFTR-deficient cells, 1.25 μM","no morphology of apoptosis, weak fluorescence was observed"
same,apoptosis by fluorescein staining,"CFTE29o-; CFTR-deficient cells, 2.5 μM",early stage apoptosis

# Reference: patent publication US8143313B2, “Compositions and methods for preventing or treating an inflammatory response” (McGill University, priority 2004, dated 2012)
